# Measured values as given in BindingDB's records for PubMed 39026645 (Tianjin University).
# pIC50: −log10 of the molar value.
# Molecular target: T1, Polyphenol oxidase 4 (Agaricus bisporus, UniProt C7FF05)
# T1 sequence (C7FF05 whole entry): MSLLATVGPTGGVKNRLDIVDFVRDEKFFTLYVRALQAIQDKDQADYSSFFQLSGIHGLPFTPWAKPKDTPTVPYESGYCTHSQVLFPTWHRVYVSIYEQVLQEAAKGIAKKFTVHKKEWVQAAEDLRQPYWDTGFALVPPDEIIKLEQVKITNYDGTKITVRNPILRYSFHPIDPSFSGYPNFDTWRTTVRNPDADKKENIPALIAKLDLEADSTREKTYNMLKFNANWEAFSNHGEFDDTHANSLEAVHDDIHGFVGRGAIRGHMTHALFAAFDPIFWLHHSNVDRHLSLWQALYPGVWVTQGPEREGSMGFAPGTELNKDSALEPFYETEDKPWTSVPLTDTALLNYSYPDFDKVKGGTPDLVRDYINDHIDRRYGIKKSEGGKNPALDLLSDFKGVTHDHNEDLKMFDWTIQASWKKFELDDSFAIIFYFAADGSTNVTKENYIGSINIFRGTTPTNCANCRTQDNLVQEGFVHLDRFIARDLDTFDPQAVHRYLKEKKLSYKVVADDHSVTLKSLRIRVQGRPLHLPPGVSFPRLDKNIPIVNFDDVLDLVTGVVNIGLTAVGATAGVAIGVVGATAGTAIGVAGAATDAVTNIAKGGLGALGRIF
# Assay: Inhibition of mushroom tyrosinase
row,pIC50,Structure (SMILES)
1,8.59,COc1c(O[C@@H]2O[C@H](CO)[C@@H](O)[C@H](O)[C@H]2O)cc2occ(-c3ccc(O)cc3)c(=O)c2c1O [CHEBI:9428]
2,8.85,COc1c(O)cc2occ(-c3ccc(O)cc3)c(=O)c2c1O [Tectorigenin]
